Measurements: patent publication US10409869B2, “(R)- and (S)-1-(3-(3-N,N-dimethylaminocarbonyl)phenoxyl-4-nitrophenyl)-1-ethyl-N,N'-bis (ethylene)phosphoramidate, compositions and methods for their use and preparation” (OBI Pharma, Inc., priority 2015, dated 2019)

Legend:
[1] = system: HepG2-GFP human hepatocellular carcinoma; experiment: Orthotopic HepG2-GFP human hepatocellular carcinoma mouse model, tumor burden; format: in vivo, nude mice; conditions: at tested dosages
Experimental: Female athymic nude mice (6 weeks of age) were used in this study. The animals were purchased from Beijing HFK Bioscience, Co., Ltd and maintained in a High Efficiency Particulate Air Filter (HEPA) filtered environment with cages, food, and bedding sterilized by irradiation or autoclaving. A total of 32 nude mice were used for the study. HepG2-GFP human hepatocellular carcinoma cells (AntiCancer, Inc., San Diego, Calif.) were incubated with RPMI-1640 (Gibco-BRL, Life Technologies, Inc.), which contained 10% FBS. Cells were grown in a CO2 Water Jacketed Incubator (Forma Scientific) maintaining 37° C. and a 5% CO2/95% air atmosphere. Cell viability was determined by trypan blue exclusion analysis. Five female athymic nude mice were injected subcutaneously with a single dose of 5×10^6 HepG2-GFP cells. Tumors were harvested when their size reached 1 cm^3 and the tumor tissues were then cut into small fragments of 1 mm^3. Forty female nude mice were implanted orthotopically with a single piece of tumor fragment, which was derived from a subcutaneous tumor model of HepG2-GFP human hepatocellular carcinoma. The tumor tissue was orthotopically implanted in the right lobe of the liver in each mouse by SOI (Surgical Orthotopic Implantation). […]
During the period of the study, all of the experimental mice were checked daily for mortality or signs of morbidity. […] The body weights of the mice were measured twice weekly during the study period. […] Comparisons of body weights and tumor burdens in different groups were analyzed using the Student's t-test with an α=0.05 (two-sided). […]
The progressions of orthotopic HepG2-GFP hepatocellular carcinoma in different groups were monitored by real time imaging. […] Typical tumor images at the end of the study in each group and tumor growth curves derived from the signals of tumor fluorescence, which were analyzed using the Power Station software (INDEC Biosystems, CA, USA), are shown in FIG. 6 and FIG. 7, respectively
Tumor IR was calculated based on the final average tumor weights according to the formula: IR (%)=(1−treatment(t)/control(c))×100

AL7473 cells = experiment: T-cell leukemia animal model, human CD45 FACS; format: in vivo, mouse
Experimental: Leukemic cells were prepared by thawing out ˜150×10^6 of AL7473 cells from LN2 (about 2-3 vials) and placing them into a 37° C. water bath rapidly. All of the cells were transferred into a 50 ml falcon tube with 40 ml pre-warmed complete medium. The cells were centrifuged at 1200 rpm for 5 min. The cells were re-suspended with 40 ml RPMI1640. The cells were then counted. The cells were centrifuged at 1200 rpm for 5 min. and re-suspended with ice cold PBS to 2 million cell per 100 ul PBS. 100 ul of saline containing 2×10^6 cells prepared above were used to inject into each mouse by IV. The FACS analysis was done for blood weekly during the experimental period by transferring samples into FACS tubes, adding human CD45 FITC and isotypes into corresponding tubes for all the samples and incubating the cells on ice for 30 min. in the dark. 2 ml of red blood cell lysing buffer was added to each tube and incubated on ice for another 30 min. in the dark. […] Samples were analyzed on a BD Calibur by using Cell Quest or Flowjo and the results were analyzed by using Prism 5.0. […]
Peripheral blood was collected weekly for human CD45 antibody FACS detected during treatment since the treatment start on Day 43 post cell inoculation. […] Blood, spleen and bone marrow of all mice were collected for human CD45 FACS detected. […]

C[C@H](OP(=O)(N1CC1)N1CC1)c1ccc([N+](=O)[O-])c(Oc2cccc(C(=O)N(C)C)c2)c1 (single isomer, unassigned) [TH3424]
inhibitory effect on orthotopic HepG2-GFP model [1]: very strong inhibitory effect
percentages of human CD45+ leukemia cells in peripheral blood (AL7473 cells; after the second dosing, treatment groups 2-4 vs vehicle group 1, P<0.001): significantly lower than vehicle group
tumor burden (human CD45) in blood, spleen and bone marrow at termination (AL7473 cells; groups 2-4 vs group1, P<0.01, bone marrow in group2 P<0.05): significant differences
